Results on 59 molecules are retold here after PMC10877416 (Translational Oncology, 2024).

Read-outs that look alike come from different tables or passages of the source. Ends that are not written are not given here. Peptide text beside a SMILES is read from it.

One series is described as follows: Solubility in water. Type of series: physicochemical. From the text:
To increase solubility, its sequence was elongated at the N- and C-terminals by adding hydrophilic amino acids from the protein sequence. […] These modifications were introduced to prevent the oxidation of methionine and cysteine.

For another series, the target named is PD-L1 protein. The following applies: Table S6, supplement reference list, read-out: Affinity (KD), cited from earlier work. From the text: Supplement mmc1.docx, table 8: Table S6. […] D - amino acids are marked with a lowercase letter. NB - no binding; ND - no data; JD - no name given by the authors. | column: Affinity (KD) [µM]
The target of a further series is PD-1 protein. To be noted: Table S5, supplement reference list, read-out: Affinity (KD), cited from earlier work.
In series [1] the target is programmed cell death 1 (PD-1) (human, UniProt Q15116 25-170). Briefly: SPR; Biacore T200; biotin-(Gly)5-peptides immobilised on an SA sensor chip (~800 RU, L1 ~500 RU); PD-1 injected at 0.31-10 µM (two-fold dilutions); PBS-P running buffer, 30 µl/min, 25°C; 1:1 binding model, at least three titrations. To be noted: both partners purified.
programmed cell death 1 (PD-1), sequence (Q15116 25-170): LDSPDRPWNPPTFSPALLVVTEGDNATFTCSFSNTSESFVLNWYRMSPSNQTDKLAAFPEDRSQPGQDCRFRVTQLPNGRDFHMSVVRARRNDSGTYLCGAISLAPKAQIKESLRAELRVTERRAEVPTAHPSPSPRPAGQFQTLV

Turning to `CCCC[C@H](NC(=O)[C@H](CCC(=O)O)NC(=O)[C@H](Cc1c[nH]c2ccccc12)NC(=O)[C@H](Cc1ccc(O)cc1)NC(=O)[C@@H](NC(=O)[C@@H](NC(=O)[C@H](CC(C)C)NC(=O)[C@H](C)NC(C)=O)[C@@H](C)CC)C(C)C)C(=O)N[C@@H](CCC(=O)O)C(=O)N[C@@H](CC(=O)O)C(=O)N[C@@H](CCCCN)C(=O)N[C@@H](CC(N)=O)C(=O)N[C@H](C(=O)N[C@H](C(=O)N[C@@H](CCC(N)=O)C(=O)N[C@@H](Cc1ccccc1)C(=O)N[C@H](C(N)=O)C(C)C)[C@@H](C)CC)[C@@H](C)CC` [Peptide L2] (HELM PEPTIDE1{[ac].A.L.I.V.Y.W.E.[Nle].E.D.K.N.I.I.Q.F.V.[am]}$$$$V2.0), the “Solubility in water” value in the series “Solubility in water” is recorded as “poorly soluble in water”.

In the case of CLQKTPKQC [PD-L1Pep-1], on PD-L1 protein (ref [36]), the Kd is 0.373 µM.

Take CRAMISYGGADYK-(N-Me-Arg)-IC [MN1.4]: on PD-1 protein (ref [21]), the Kd is 2 µM.

Take CVRARTR [PD-L1Pep-2]: the Kd on PD-L1 protein (ref [36]) is 0.281 µM.

As to “CVYRCMISYGGADYKRITC (disulfide (positions not given here)) [ΔDS-II [C110–C128]]”, the Kd at PD-1 protein (ref [8]) is 11.6 µM.

As for “CYRCMISYGGADYKRIC (disulfide (positions not given here))”, at PD-1 protein (ref [8]), the Kd is 17.5 µM.

For DWFKAFYDKINETYNK [Peptide 4F-32], the Kd at PD-L1 protein (ref [47]) is 0.017 µM.

On to DWIKANYDETAEYNKEAK [Peptide 4F-30], for which the Kd at PD-L1 protein (ref [47]) was 419 µM.

With DYHDPSLPTLRK [CLP004], the dissociation constant Kd on PD-1 protein (ref [10]) was 0.544 µM.

As for FNWDYSLEELREKAKYK [Ar5Y_2], the Kd at PD-1 protein (ref [3]) was 3.14 µM.

In the case of FNWDYSWKSERLKEAYDL [Ar5Y_1], the equilibrium dissociation constant (Kd) on PD-1 protein (ref [3]) is 3.39 µM.

As to FRWWR [WANG-004], the Kd at PD-1 protein (NB = no binding, ref [6]) was 1.6 µM.

Regarding FSGTVTTAGLLF [P-F4], at PD-1 protein (ref [17]), the Kd was 0.119 µM.

With GDWFKAYYDKVAEG [Peptide 4F-8], the Kd on PD-L1 protein (ref [47]) was 412 µM.

On to GIDYEERWK [Ar4_1], for which the Kd on PD-1 protein (ref [3]) is 28.3 µM.

For the molecule GNADYNSQRAQLYNQ [Ar5Y_4 W3A], the Kd at PD-1 protein (ref [3]) is 8.08 µM.

For GNWAYNSQRAQLYNQ [Ar5Y_4 D4A], the Kd at PD-1 protein (ref [3]) is 18.9 µM.

As for GNWDANSQRAQLYNQ [Ar5Y_4 Y5A], on PD-1 protein (ref [3]), the Kd was 20.2 µM.

Take GNWDYNSQAAQLYNQ [Ar5Y_4 R9A]: the dissociation constant (Kd) on PD-1 protein (ref [3]) is 21.2 µM.

For the molecule GNWDYNSQRAQLANQ [Ar5Y_4 Y13A], at PD-1 protein (ref [3]), the Kd was 10.2 µM.

Take GNWDYNSQRAQLYNQ [Ar5Y_4]: the Kd on PD-1 protein (ref [3]) is 1.38 µM.

Consider GQSEHHMRVYSF [OPBP-1], for which the Kd on PD-L1 protein (ref [38]) is 0.667 µM.

With GTRLKPLIICVQWPGL [PD-L1ip3], the Kd on PD-L1 protein (ref [40]) is 33 µM.

In the case of HYPFRPHANQAS [CLP001], at PD-1 protein (ref [10]), the Kd was 0.534 µM.

For KRWWR [WANG-003], the Kd at PD-1 protein (NB = no binding, ref [6]) is 3.3 µM.

Turning to KSKAVNRVSQESEM [Pep6], the Kd at PD-1 protein (ref [12]) was 66.4 µM.

As for LDYDGRLSQ [Ar4_2], the Kd at PD-1 protein (ref [3]) was 83.9 µM.

In the case of LDYGDKREGQMAE [Ar5M_1], the Kd at PD-1 protein (ref [3]) is 21.6 µM.

Consider LDYVNRRKMYQ [Ar5M_2], for which the Kd at PD-1 protein (ref [3]) was 3.32 µM.

Turning to LERHDFGDGRARYEE [Pep10], the Kd on PD-1 protein (ref [12]) is 39 µM.

Regarding LETWFGKEILVKT [Pep1], the dissociation constant (Kd) at PD-1 protein (ref [12]) was 140 µM.

Consider LEYWSSGSTTMYGL [Pep9], for which the Kd at PD-1 protein (ref [12]) was 36.4 µM.

For QYRCNGTSSKGSDQAIITLRV [Pep14], the Kd at PD-1 protein (ref [12]) was 10.9 µM.

With RCMICYGGADYKRI [Peptide P1.1], on PD-1 protein (ref [11]), the Kd was 3.66 µM.

With RCMISYpGADYKRI [Peptide P1.2], the Kd on PD-1 protein (ref [11]) was 83 µM.

Take RRQWFW [JD2]: at PD-1 protein (ref [19]), the Kd is 4.38 µM.

Take RRWQWR [WANG-005]: the Kd at PD-1 protein (NB = no binding, ref [6]) was 5.1 µM.

For RRWWRR [JD1], the Kd on PD-1 protein (ref [19]) was 4.01 µM.

Turning to RTCITYpGADYCRI [Peptide P1.4], the Kd at PD-1 protein (ref [11]) is 474 µM.

On to RTMIWYAAAWYKRI [Peptide P2.2], for which the Kd on PD-1 protein (ref [11]) is 55.2 µM.

For RTMIWYGpAWYKRI [Peptide P2.3], the dissociation constant Kd at PD-1 protein (ref [11]) is 129 µM.

As to RTMIWYpPAWYKRI [Peptide P2.1], the Kd on PD-1 protein (ref [11]) was 29.2 µM.

On to SGQQRTSADCWEDHGWGSGGSK [PBP], for which the dissociation constant (Kd) at PD-1 protein (ref [22]) was 17.4 µM.

Regarding SGQYASYHCWCWRDPGRSGGSK [TPP-1], the Kd at PD-L1 protein (ref [34]) was 0.095 µM.

For the molecule SHFSASYDKYAEKF [Peptide 4F-16], at PD-L1 protein (ref [47]), the Kd is 49.4 µM.

For “SHHHRLSRLKEIANSPTQFWRMVARNTLGNGAKQSLNIEHARL [nABPD1]”, the Kd at PD-1 protein (ref [18]) is 0.0119 µM.

As to “SRLKEIANSPTQFWRMVARNTLGNGAKQSLNIEHARL [nABP284]”, at PD-1 protein (ref [18]), the Kd is 11.8 µM.

For TEKDYRHGNIRMKLAYDL [Ar5Y_3], at PD-1 protein (ref [3]), the Kd is 3.13 µM.

With TFKVEDRYGQGQQILD [Pep4], at PD-1 protein (ref [12]), the Kd was 22.7 µM.

As to TSEVDNGVGKPQKHS [Pep3], the Kd at PD-1 protein (ref [12]) was 81.1 µM.

In the case of VFELRHSKRKDSRTVY [Pep2], at PD-1 protein (ref [12]), the Kd is 127 µM.

For WDYD [Ar3_1], the Kd at PD-1 protein (ref [3]) is 22.3 µM.

For WHFSYNWRWLPP [CLP003], the Kd on PD-1 protein (ref [10]) was 0.117 µM.

For WHRSYYTWNLNT [CLP002], the Kd on PD-1 protein (ref [10]) was 0.366 µM.

Turning to [CKWYRPSEC] [Peptide C8], the Kd on PD-1 protein (ref [16]) is 0.64 µM.

In the case of [TMYLerRYpD] [PD-i3], the Kd on PD-1 protein (ref [13]) is 102 µM.

B1: PD-L1(113-126), biotin-(Gly)5 form (peptide)
chain: RCMISYGGADYKRI
HELM: PEPTIDE1{[O=C1N[C@H]2[C@H](CS[C@H]2CCCCC(=O)[*:2])N1].G.G.G.G.G.R.[Abu].[Nle].I.S.Y.G.G.A.D.Y.K.R.I.[am]}$$$$V2.0
SMILES: CCCC[C@H](NC(=O)[C@H](CC)NC(=O)[C@H](CCCNC(=N)N)NC(=O)CNC(=O)CNC(=O)CNC(=O)CNC(=O)CNC(=O)CCCC[C@@H]1SC[C@@H]2NC(=O)N[C@@H]21)C(=O)N[C@H](C(=O)N[C@@H](CO)C(=O)N[C@@H](Cc1ccc(O)cc1)C(=O)NCC(=O)NCC(=O)N[C@@H](C)C(=O)N[C@@H](CC(=O)O)C(=O)N[C@@H](Cc1ccc(O)cc1)C(=O)N[C@@H](CCCCN)C(=O)N[C@@H](CCCNC(=N)N)C(=O)N[C@H](C(N)=O)[C@@H](C)CC)[C@@H](C)CC
In series [1], B1 displayed a koff of 0.000194 s⁻¹ and a kon of 24.7 M⁻¹ s⁻¹.

B2: PD-L1(111-127), biotin-(Gly)5 form (peptide)
chain: VYRCMISYGGADYKRIT
HELM: PEPTIDE1{[O=C1N[C@H]2[C@H](CS[C@H]2CCCCC(=O)[*:2])N1].G.G.G.G.G.V.Y.R.[Abu].[Nle].I.S.Y.G.G.A.D.Y.K.R.I.T.[am]}$$$$V2.0
SMILES: CCCC[C@H](NC(=O)[C@H](CC)NC(=O)[C@H](CCCNC(=N)N)NC(=O)[C@H](Cc1ccc(O)cc1)NC(=O)[C@@H](NC(=O)CNC(=O)CNC(=O)CNC(=O)CNC(=O)CNC(=O)CCCC[C@@H]1SC[C@@H]2NC(=O)N[C@@H]21)C(C)C)C(=O)N[C@H](C(=O)N[C@@H](CO)C(=O)N[C@@H](Cc1ccc(O)cc1)C(=O)NCC(=O)NCC(=O)N[C@@H](C)C(=O)N[C@@H](CC(=O)O)C(=O)N[C@@H](Cc1ccc(O)cc1)C(=O)N[C@@H](CCCCN)C(=O)N[C@@H](CCCNC(=N)N)C(=O)N[C@H](C(=O)N[C@H](C(N)=O)[C@@H](C)O)[C@@H](C)CC)[C@@H](C)CC
In the case of B2, in series [1], the koff came to 0.00179 s⁻¹ and the kon was 10.9 M⁻¹ s⁻¹.

B3: PD-L1(110-128)(V111C-T127C), biotin-(Gly)5 form (peptide)
chain: GCYRCMISYGGADYKRICV
HELM: PEPTIDE1{[O=C1N[C@H]2[C@H](CS[C@H]2CCCCC(=O)[*:2])N1].G.G.G.G.G.G.C.Y.R.[Abu].[Nle].I.S.Y.G.G.A.D.Y.K.R.I.C.V.[am]}$PEPTIDE1,PEPTIDE1,8:R3-24:R3$$$V2.0
SMILES: CCCC[C@@H]1NC(=O)[C@H](CC)NC(=O)[C@H](CCCNC(=N)N)NC(=O)[C@H](Cc2ccc(O)cc2)NC(=O)[C@@H](NC(=O)CNC(=O)CNC(=O)CNC(=O)CNC(=O)CNC(=O)CNC(=O)CCCC[C@@H]2SC[C@@H]3NC(=O)N[C@@H]32)CSSC[C@@H](C(=O)N[C@H](C(N)=O)C(C)C)NC(=O)[C@H]([C@@H](C)CC)NC(=O)[C@H](CCCNC(=N)N)NC(=O)[C@H](CCCCN)NC(=O)[C@H](Cc2ccc(O)cc2)NC(=O)[C@H](CC(=O)O)NC(=O)[C@H](C)NC(=O)CNC(=O)CNC(=O)[C@H](Cc2ccc(O)cc2)NC(=O)[C@H](CO)NC(=O)[C@H]([C@@H](C)CC)NC1=O
In series [1], B3 gave a koff of 0.00071 s⁻¹ and a kon of 33.1 M⁻¹ s⁻¹.
